Tested on: Plasmodium berghei
Assay: Luciferase/luciferin-expressing antifolate-resistant parasites were used to infect a culture of HepG2 cells that were pre-incubated with compounds. Infected hepatocytes emit light due to the luciferase reaction. Assay results are presented as the percent inhibition of light emission compared to control. […]
Format: functional
Conditions: sporozoite; for IC90: read-out: LUCIFERASE INFECTION ASSAY - IC90

Work on Cc1ccc2cccc(Oc3ncnc4scc(-c5ccccc5)c34)c2n1 yielded an IC50 (HEPG2TOX_HILL_SLOPE 0.0481, HEPG2TOX_R_SQUARED 0.388, PBLUC_HILL_SLOPE 1.34, PBLUC_R_SQUARED 0.656, read-out: LUCIFERASE INFECTION ASSAY - IC50) of 5.34 µM and an IC90 greater than 10 µM.

In the case of COc1ccc(C(=O)NCC#Cc2cccc(C(F)(F)F)c2)cn1, the IC50 (FFLUC_HILL_SLOPE 300, FFLUC_R_SQUARED 0.355, read-out: LUCIFERASE INFECTION ASSAY - IC50) is reported as greater than 10 µM and the IC90 is reported as greater than 10 µM.

Molecule Cc1cccc(C(=O)Nc2cc(S(=O)(=O)N3CCOCC3)ccc2N2CCCCC2)n1 has an IC50 (HEPG2TOX_HILL_SLOPE 0.0521, HEPG2TOX_R_SQUARED 0.112, read-out: LUCIFERASE INFECTION ASSAY - IC50) greater than 10 µM and an IC90 greater than 10 µM.

O=C1COc2ccc(-c3cs/c(=N\c4cc(S(=O)(=O)N5CCOCC5)ccc4Cl)n3C3CC3)cc2N1 showed an IC50 (FFLUC_HILL_SLOPE 592, FFLUC_R_SQUARED 0.24, HEPG2TOX_HILL_SLOPE 8.86, HEPG2TOX_R_SQUARED 0.733, PBLUC_HILL_SLOPE 5.17, PBLUC_R_SQUARED 0.255, read-out: LUCIFERASE INFECTION ASSAY - IC50) of 8.04 µM and an IC90 greater than 10 µM.

Work on O=C1C=CC(=O)N1c1ccc(Cl)cc1Cl yielded an IC50 (FFLUC_HILL_SLOPE 227, FFLUC_R_SQUARED 0.205, read-out: LUCIFERASE INFECTION ASSAY - IC50) greater than 13.6 µM and an IC90 greater than 13.6 µM.

Cc1nc(=O)c2c(C)c(C(=O)OCC(=O)/C=C3\N(C)c4ccccc4C3(C)C)sc2[nH]1 gave an IC50 (HEPG2TOX_HILL_SLOPE 0.0151, HEPG2TOX_R_SQUARED 0.0709, PBLUC_HILL_SLOPE 3.19, PBLUC_R_SQUARED 0.563, read-out: LUCIFERASE INFECTION ASSAY - IC50) of 6.65 µM and an IC90 greater than 10 µM.

CCCc1ccc(-c2csc(NC(=O)CC(NC(=O)c3ccccc3Cl)c3ccccc3)n2)cc1 (centres undefined) gave an IC50 (FFLUC_HILL_SLOPE 390, FFLUC_R_SQUARED 0.412, read-out: LUCIFERASE INFECTION ASSAY - IC50) greater than 10 µM and an IC90 greater than 10 µM.

CCCOc1ccc(/C=C/C(=O)Nc2ccc(Br)c(C(F)(F)F)c2)cc1OCC gave an IC50 (FFLUC_HILL_SLOPE 178, FFLUC_R_SQUARED 0.15, HEPG2TOX_HILL_SLOPE 0.174, HEPG2TOX_R_SQUARED 0.586, PBLUC_HILL_SLOPE 2.73, PBLUC_R_SQUARED 0.361, read-out: LUCIFERASE INFECTION ASSAY - IC50) of 7.97 µM and an IC90 greater than 10 µM.

For CN(C(=O)c1cc(-c2ccccc2OCc2ccccc2)ncn1)c1ccccc1, the IC50 (HEPG2TOX_HILL_SLOPE 0.0237, HEPG2TOX_R_SQUARED 0.016, PBLUC_HILL_SLOPE 4.42, PBLUC_R_SQUARED 0.717, read-out: LUCIFERASE INFECTION ASSAY - IC50) was 3.04 µM and the IC90 was 5 µM.

For CC(C)=CC(=O)Nc1scc(-c2ccccc2)c1C(=O)OCC(=O)Nc1ccc([N+](=O)[O-])cc1Cl, the IC50 (HEPG2TOX_HILL_SLOPE 0.0482, HEPG2TOX_R_SQUARED 0.161, PBLUC_HILL_SLOPE 2.32, PBLUC_R_SQUARED 0.465, read-out: LUCIFERASE INFECTION ASSAY - IC50) was 5.35 µM and the IC90 was greater than 10 µM.

CCN(CC)c1nc2c3c(nc4c(c3c1C#N)CC(c1ccccc1)O4)NC1(CCCCC1)N2 (centres undefined) showed an IC50 (FFLUC_HILL_SLOPE 304, FFLUC_R_SQUARED 0.442, PBLUC_HILL_SLOPE 2.01, PBLUC_R_SQUARED 0.722, read-out: LUCIFERASE INFECTION ASSAY - IC50) of 6.1 µM and an IC90 greater than 10 µM.

In the case of Oc1cc2[nH]c3ccccc3c2cc1CN1CCN(Cc2cccs2)CC1, the IC50 (HEPG2TOX_HILL_SLOPE 0.0488, HEPG2TOX_R_SQUARED 0.0234, PBLUC_HILL_SLOPE 24, PBLUC_R_SQUARED 0.263, read-out: LUCIFERASE INFECTION ASSAY - IC50) is reported as 9.5 µM and the IC90 is reported as greater than 10 µM.

O=C(C1COc2ccccc2C1)N(Cc1ccccc1)c1ccccn1 (centres undefined) gave an IC50 (HEPG2TOX_HILL_SLOPE 0.0154, HEPG2TOX_R_SQUARED 0.0147, read-out: LUCIFERASE INFECTION ASSAY - IC50) greater than 10 µM and an IC90 greater than 10 µM.

Molecule CCCCCCCc1ccc(NC(=O)Nc2ccc(F)cc2)cc1 has an IC50 (FFLUC_HILL_SLOPE 255, FFLUC_R_SQUARED 0.421, PBLUC_HILL_SLOPE 1.52, PBLUC_R_SQUARED 0.706, read-out: LUCIFERASE INFECTION ASSAY - IC50) of 2.49 µM and an IC90 greater than 10 µM.

CCOC(=O)c1sc(SCc2ccc(Cl)cc2)c2c1CCCC2=O showed an IC50 (FFLUC_HILL_SLOPE 175, FFLUC_R_SQUARED 0.438, PBLUC_HILL_SLOPE 6.18, PBLUC_R_SQUARED 0.111, read-out: LUCIFERASE INFECTION ASSAY - IC50) greater than 8.66 µM and an IC90 greater than 8.66 µM.

Cc1cc(N2CCN(c3cnn(-c4nc5ccccc5[nH]4)c(=O)c3Cl)CC2)nc(C(C)C)n1 was tested, and the IC50 (HEPG2TOX_HILL_SLOPE 0.0256, HEPG2TOX_R_SQUARED 0.0179, PBLUC_HILL_SLOPE 3.18, PBLUC_R_SQUARED 0.351, read-out: LUCIFERASE INFECTION ASSAY - IC50) was 3.68 µM and the IC90 was 7.33 µM.

CC1c2ccsc2CCN1C(=S)NC(=O)c1ccc(C(C)(C)C)cc1 (centres undefined) gave an IC50 (HEPG2TOX_HILL_SLOPE 0.0482, HEPG2TOX_R_SQUARED 0.0333, read-out: LUCIFERASE INFECTION ASSAY - IC50) greater than 8.86 µM and an IC90 greater than 8.86 µM.

Work on O=C(Cc1csc(-c2ccccc2Cl)n1)Nc1cnc2ccccc2c1 yielded an IC50 (HEPG2TOX_HILL_SLOPE 0.041, HEPG2TOX_R_SQUARED 0.0816, read-out: LUCIFERASE INFECTION ASSAY - IC50) greater than 10 µM and an IC90 greater than 10 µM.

OCCNCc1cc(Cl)ccc1OCc1ccc(Cl)cc1Cl showed an IC50 (HEPG2TOX_HILL_SLOPE 0.0281, HEPG2TOX_R_SQUARED 0.0269, read-out: LUCIFERASE INFECTION ASSAY - IC50) greater than 8.31 µM and an IC90 greater than 8.31 µM.

O=C1C(=C2NC(c3cccc(C(F)(F)F)c3)=CS2)Sc2ccccc21 gave an IC50 (FFLUC_HILL_SLOPE 302, FFLUC_R_SQUARED 0.711, PBLUC_HILL_SLOPE 16.1, PBLUC_R_SQUARED 0.464, read-out: LUCIFERASE INFECTION ASSAY - IC50) of 2.83 µM and an IC90 of 3.25 µM.

Work on Cc1cc(C(=O)C(C)OC(=O)CCc2nc(=O)c3ccccc3[nH]2)c(C)n1-c1ccc(Cl)cc1 (centres undefined) yielded an IC50 (HEPG2TOX_HILL_SLOPE 0.024, HEPG2TOX_R_SQUARED 0.0218, read-out: LUCIFERASE INFECTION ASSAY - IC50) greater than 10 µM and an IC90 greater than 10 µM.

O=C(c1ccc([N+](=O)[O-])o1)N1CCc2sccc2C1c1ccccc1 (centres undefined) was tested, and the IC50 (HEPG2TOX_HILL_SLOPE 0.0396, HEPG2TOX_R_SQUARED 0.037, PBLUC_HILL_SLOPE 3.01, PBLUC_R_SQUARED 0.32, read-out: LUCIFERASE INFECTION ASSAY - IC50) was 6.65 µM and the IC90 was greater than 10 µM.

With O=[N+]([O-])c1ccc(S(=O)(=O)c2ccc(C(F)(F)F)cn2)nc1 the IC50 (FFLUC_HILL_SLOPE 150, FFLUC_R_SQUARED 0.542, HEPG2TOX_HILL_SLOPE 3, HEPG2TOX_R_SQUARED 0.956, PBLUC_HILL_SLOPE 6.23, PBLUC_R_SQUARED 0.341, read-out: LUCIFERASE INFECTION ASSAY - IC50) was 4.49 µM and the IC90 was 6.39 µM.

For CCCCCCN(C(=O)Cn1ccsc1=N)c1nc(-c2ccccc2)cs1, the IC50 (FFLUC_HILL_SLOPE 258, FFLUC_R_SQUARED 0.634, read-out: LUCIFERASE INFECTION ASSAY - IC50) was greater than 10 µM and the IC90 was greater than 10 µM.

CC(C)(C)c1cc(-c2csc(CS(=O)(=O)Cc3cccc(C(F)(F)F)c3)n2)cc(C(C)(C)C)c1O showed an IC50 (FFLUC_HILL_SLOPE 261, FFLUC_R_SQUARED 0.0541, PBLUC_HILL_SLOPE 0.448, PBLUC_R_SQUARED 0.195, read-out: LUCIFERASE INFECTION ASSAY - IC50) greater than 6.28 µM and an IC90 greater than 6.28 µM.

Molecule FC(F)(F)c1cc(NC(=S)N2CCC(CCCC3CCN(C(=S)Nc4cc(C(F)(F)F)cc(C(F)(F)F)c4)CC3)CC2)cc(C(F)(F)F)c1 has an IC50 (FFLUC_HILL_SLOPE 260, FFLUC_R_SQUARED 0.348, HEPG2TOX_HILL_SLOPE 8.4, HEPG2TOX_R_SQUARED 0.678, PBLUC_HILL_SLOPE 17.9, PBLUC_R_SQUARED 0.0888, read-out: LUCIFERASE INFECTION ASSAY - IC50) greater than 4.38 µM and an IC90 greater than 4.38 µM.

With COc1ccc(CN2C(=O)c3ccccc3C(C=NNC(=O)Cc3cccn3C)C2=O)cc1 (centres undefined) the IC50 (FFLUC_HILL_SLOPE 212, FFLUC_R_SQUARED 0.138, HEPG2TOX_HILL_SLOPE 1.34, HEPG2TOX_R_SQUARED 0.84, PBLUC_HILL_SLOPE 13.5, PBLUC_R_SQUARED 0.236, read-out: LUCIFERASE INFECTION ASSAY - IC50) was 3.64 µM and the IC90 was 4.28 µM.

O=C(NC1CC1)c1ccc(-c2cnc3cnc(-c4ccsc4)cn23)cc1 gave an IC50 (HEPG2TOX_HILL_SLOPE 0.0389, HEPG2TOX_R_SQUARED 0.0745, PBLUC_HILL_SLOPE 3.06, PBLUC_R_SQUARED 0.597, read-out: LUCIFERASE INFECTION ASSAY - IC50) of 7.19 µM and an IC90 greater than 9.16 µM.

In the case of COc1cccc(C(c2c(-c3ccccc3)n(O)c3ccccc23)N2CCOCC2)c1 (centres undefined), the IC50 (FFLUC_HILL_SLOPE 161, FFLUC_R_SQUARED 0.573, read-out: LUCIFERASE INFECTION ASSAY - IC50) is reported as greater than 10 µM and the IC90 is reported as greater than 10 µM.

In the case of C=CCN(c1ccccc1Cl)S(=O)(=O)c1cc(C(=O)NCc2cn3cc(Cl)ccc3n2)ccc1Cl, the IC50 (FFLUC_HILL_SLOPE 155, FFLUC_R_SQUARED 0.0996, read-out: LUCIFERASE INFECTION ASSAY - IC50) is reported as greater than 10 µM and the IC90 is reported as greater than 10 µM.

For CC(=O)Nc1cccc(-c2cn3c(-c4ccc(Oc5ccccc5)cc4)cnc3cn2)c1, the IC50 (HEPG2TOX_HILL_SLOPE 0.0216, HEPG2TOX_R_SQUARED 0.0103, PBLUC_HILL_SLOPE 2.46, PBLUC_R_SQUARED 0.352, read-out: LUCIFERASE INFECTION ASSAY - IC50) was greater than 7.85 µM and the IC90 was greater than 7.85 µM.

CCn1c(-c2ccccc2)c(C(=O)COc2ccc(F)cc2Br)c2ccccc21 showed an IC50 (FFLUC_HILL_SLOPE 1400, FFLUC_R_SQUARED 0.245, read-out: LUCIFERASE INFECTION ASSAY - IC50) greater than 10 µM and an IC90 greater than 10 µM.
